Measured values reported in patent US11026901B2, “Treatment or prevention of cardiovascular events via the administration of a colchicine derivative” (Murray and Poole Enterprises, LTD., priority 2012, dated 2021).

Tested on: patients with angiographically proven, clinically stable coronary disease
Experiment: LoDoCo trial: cardiovascular events with colchicine 0.5 mg/day added to standard secondary prevention therapy
Assay type: in vivo, human
Protocol: We employed a PROBE [Prospective Randomized, Open, Blinded End-point] design
All patients signed informed consent before randomization.
All other treatments were continued as usual.
The secondary outcomes were analysed similarly.

[1] = intention-to-treat, in each group
[2] = intention-to-treat, treatment [n = 282] vs control [n = 250]
[3] = on-treatment analysis, treatment [n = 243] vs control [n = 250]

COc1cc2c(c(OC)c1OC)-c1ccc(OC)c(=O)cc1[C@@H](NC(C)=O)CC2 [colchicine]
risk of a cardiovascular event, including an ACS, out of hospital cardiac arrest and non-cardio-embolic ischemic stroke (colchicine 0.5 mg/day added to standard therapy, stable coronary disease): significantly reduces
patients who died (colchicine group (ten in the control group)): 4 patients
Primary Outcome (composite ACS, out of hospital cardiac arrest or non-cardio-embolic ischemic stroke), patients with event (intention-to-treat, colchicine 0.5 mg/day [n = 282], median follow up 36 months): 15 n
number needed to treat, primary outcome (intention-to-treat, colchicine 0.5 mg/day vs control): 11
stent related ACS with evidence of acute stent thrombosis, patients [1]: 2
stent related ACS with evidence of significant in-stent stenosis, patients [1]: 2
Acute Coronary Syndrome, HR; 95% CI [2]: 0.33
Non-Stent Related ACS, HR; 95% CI [2]: 0.26
Non-Stent Related AMI, HR; 95% CI [2]: 0.25
Non-Stent Related UA, HR; 95% CI [2]: 0.27
Primary Outcome, HR 95% CI (intention-to-treat, treatment [n = 282] vs control [n = 250], cox proportional hazards): 0.33
Primary Outcome, patients with event (on-treatment analysis (tolerant and compliant beyond first month), colchicine 0.5 mg/day [n = 243]): 11 n
Acute Coronary Syndrome, HR; 95% CI [3]: 0.28 (0.13, 0.58)
Non-Cardio-Embolic Stroke, HR; 95% CI [3]: 0.27 (0.03, 2.42)
Non-Stent Related ACS, HR; 95% CI [3]: 0.21 (0.09, 0.50)
Non-Stent Related AMI, HR; 95% CI [3]: 0.30 (0.10, 0.91)
Non-Stent Related UA, HR; 95% CI [3]: 0.13 (0.03, 0.57)
OOH Cardiac Arrest, HR; 95% CI [3]: 0.55 (0.05, 6.03)
